Reference: patent publication US20170184612A1, “USE OF LEUKOCYTES AND NOVEL BIOMARKERS IN THE DIAGNOSIS, CONFIRMATION, AND TREATMENT OF A NEUROLOGICAL DISORDER” (The Trustees of Columbia University in the City of New York, priority 2014, published 2017)
Where a SMILES comes first, the peptide text is derived from it. The star is where a group is joined. Cbz = O=C(OCc1ccccc1)*; CH2F = FC*

Key:
[1] = tested on: peripheral blood mononuclear cells (PBMC), T cells; test: ELISpot assay, gamma-interferon release (SFC) after stimulation with a-synuclein epitope pools; type: cell-based, human
Summary of the method: (§1)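 Ficoll-isolated PBMC from PD patients and age-matched controls were stimulated 22 h at 37 °C with pools of candidate α-syn class I/II and phospho-S129 epitopes, then deconvoluted to single epitopes in responders. IFNγ and IL-5 spot-forming cells were counted colorimetrically, with ≥20 SFC per million cells counted as a response.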

[2] = tested on: peripheral blood mononuclear cells (PBMC), T cells; test: ELISpot assay, IFNg and IL-5 reactivity combined, T cell response to α-syn epitopes; type: cell-based, human; conditions: flag 1/0 per peptide
Procedure: Blood from age matched controls and PD patients were obtained and mononuclear cells were isolated by gradient centrifugation.
Release of the cytokines gamma-interferon, which measures activation of CD4+ and/or CD8+ T cells, and the interleukin, IL-5, which measures activation of CD4+ T cells was measured by ELISpot assay. […] After 22 hours of stimulation at 37 C, the cells were removed and release of cytokines was measured by colorimetric detection of spot-forming cells (SFC). Confirmed release of cytokine is determined by the presence of a minimum of 20 SFC per million cells.
The binding algorithms in SubAim 1 predict how well the peptides would bind to MHC if present, but not if they are present in patients. To determine this, the presence of T cell response against the candidate antigens by patient blood-derived peripheral blood mononuclear cells (PBMC) is assessed by ELISPOT assays upon stimulation with the peptides. This assay detects and quantifies cytokine release (in this case, IFNγ and IL-5) from specific activated T cells.
Data were obtained from blood samples (25 ml) from 44 PD patients and 24 age-matched controls. The experiments were conducted blindly. PBMCs from these samples were isolated and exposed to pools comprising the 122 candidate class I and class II antigens and phosphorylated S129 epitopes generated in Subaim 1. For the PBMCs responsive to the pooled peptides, the response was then deconvoluted to identify individual epitopes.
PMBC fractions are recovered by standard methods with Ficoll gradient and T cells expansion (Oseroff et al., 2010). The methods for the analysis of T cell reactions and measurement of cytokines production using the enzyme-linked immunosorbent spot (ELISPOT) assay are published in analogous experiments to discover antigens in multiple sclerosis (Lolli et al., 2013) and in hay fever allergens (Oseroff et al., 2010). T cell responses are determined by measuring IFNγ and IL-5 release by ELISPOT. Statistical analysis of differences between populations is expected to be non-parametric and analyzed with the U-Mann-Whitney test. If there were a normal distribution of response, which is a priori unlikely as some patients have no T cell response, with an SD=1, 8 patients per group would be required to provide a p>90% that the study detect a >2 fold difference at a two-sided 0.05 significance level.

[3] = tested on: peripheral blood mononuclear cells (PBMC), T cells; test: ELISpot assay, IL-5 release (SFC) after stimulation with a-synuclein epitope pools; type: cell-based, human
Summary of the method: as §1

[4] = tested on: SN murine neuronal cultures; test: NM and MHC-I induction by L-DOPA in SN neuronal cultures; type: cell-based, mouse
Text: To enhance cytosolic DA, the DA precursor, L-DOPA, was used, which is accumulated by amino acid transport and converted into DA in the cytosol. Exposure to high levels of L-DOPA can produce NM in both catecholaminergic and nominally non-catecholaminergic cells (Sulzer et al., 2000). […] SN murine neuronal cultures were exposed to L-DOPA under conditions that substantially increase cytosolic DA as measured by intracellular patch electrochemistry (Mosharov et al., 2009) and promote NM production as observed by brightfield microscopy (Sulzer et al., 2000).
IFN-γ (R&D Systems) was used at a range of non-toxic concentrations for neurons or OT-1 cells (10 μg/ml-100 ng/ml, 72h). 12-well cell culture plates were pre-treated with LPS (500 ng/ml, Sigma-Aldrich), NM (5 μg/ml), α-syn, Nit-α-syn or Mut-α-syn (200 μg/ml, kindly provided by Peter Lansbury, Harvard University) for 72 h before plating 45,000-50,000 microglial cells/well for an additional 24h. A neutralizing IFN-γ antibody (1:500, PBL InterferonSource) was used to block IFN-γ released from microglia. VM neurons were incubated for 72 h with microglial medium pre-stimulated by LPS, NM, α-syn, Nit-α-syn or Mut-α-syn. As a control experiment, we directly incubated VM neurons with the same compounds in the absence of microglia. In another set of experiments, VM, cortical and striatal primary neurons were incubated for 72 h with microglial medium pre-stimulated by LPS, NM, α-syn. NM was induced in SN cultured neurons by using L-DOPA (Sulzer et al., 2000) (Sigma Aldrich). […]
Images were captured using a Leica SP5 microscope system. There was no fluorescence bleed-through of secondary antibodies under the conditions used. […]
In order to assess the proportion of TH^+ and MAP-2^+ neurons that expressed MHC-I^+, first TH^+ and MAP-2^+ neurons were counted in 24 fields surrounding the border of the well at 20× magnification. The number of TH^+ or MAP-2^+ neurons with intact soma and two or more neurites equal to or greater than the diameter of the cell soma was counted. […]

VM DA (TH+) neurons = test: OT-1 T cell cytotoxicity (killing) assay on VM DA neurons; type: cell-based, mouse; conditions: for effect on CTL mediated neuronal death: neurons with IFN-γ, SIINFEKL and OT-1 cells; for neuronal death: SIINFEKL, CTLs and medium conditioned by microglia exposed to the substance
Procedure: OT-1 CD8^+ cell proliferation was assessed by BrdU incorporation. For OT-1 T cell cytotoxicity assays, DC and VM (from C57BL/6 and 56.129P2-B2mtm1Unc/J mice) cell cultures were incubated with neuronal medium or neuronal medium containing 100 ng/ml of IFN-γ (R&D Systems). Neurons were loaded with or without […] (SEQ ID NO: 9) peptide (1 μM), and, subsequently in vitro activated OT-1 cells were added at a density of 100,000 cells/well and co-incubated for 24 h.
We used the same conditions for VM cell cultures with microglial medium previously stimulated with LPS, NM or α-syn instead of IFN-γ. Neurons were pre-incubated with IFN-γ and […] (SEQ ID NO: 9) peptide as above, and then with: 1) a pan-caspase general inhibitor (Z-VAD-FMK, 20 μM, 24h, IMGENEX); 2) a specific granzyme/perforin inhibitor (concanamycin A, 100 nM, 24h, Sigma Aldrich); 3) a specific Fas/FasL antagonist (Kp7-6, 1 mM, 24h, EMD Biosciences) and 4) concanamycin A and Kp7-6 together. OT-1 cells were then added to the culture (100,000 cells/well) and maintained for 24 h.
Following immunocytochemical staining of VM neurons, we assessed the proportion of surviving DA (TH^+) and non-DA cells (MAP-2^+, TH^−). Total numbers of TH^+ and MAP-2^+ neurons were counted in 24 fields surrounding the border of the well at 20× magnification. The number of surviving TH+ neurons with an intact soma and two or more neurites equal to or greater than the diameter of the cell soma was counted and normalized to the number in untreated cultures.

[5] = tested on: primary microglial cultures; test: ELISA of IFN-γ released by microglia; type: cell-based, mouse; conditions: primary microglial culture
Procedure: Briefly, for microglial cultures cells dissociated from 5 cortexes of 0-3 days old C57/B16 mice were seeded onto 75 cm^2 cell culture flasks in microglial culture medium (MEM supplemented with calf serum, glucose 45%, penicillin/streptomycin, insulin (25 mg/ml) and 200 mM glutamine) in a 5% CO^2 incubator at 37° C. (Sulzer et al., 2008). Two weeks later, microglia were detached from flasks by mild shaking and plated on 12 well-plates at a density of 45,000-50,000 microglial cells/well. For neuronal cultures, the area of interest was dissected and neurons were dissociated and plated at a density of 80,000/cm′ onto a layer of rat cortical glial cells grown on round glass coverslips and maintained in culture medium without added GDNF (glial cell line-derived neurotrophic factor) in a 5% CO^2 incubator at 37° C. for 5-9 days)(Sulzer et al., 2008). IFN-γ (R&D Systems) was used at a range of non-toxic concentrations for neurons or OT-1 cells (10 μg/ml-100 ng/ml, 72h). […] The concentration of IFN-γ released by microglia (plated as above) was measured by an ELISA kit (eBioscience) that detected the amount of this proinflammatory cytokine in a range of […].

primary VM neurons = test: MHC-I expression of VM neurons after microglial conditioned medium; type: cell-based, mouse; conditions: for cell surface MHC-I presentation by VM neurons: conditioned medium from microglia incubated 72 hours with the substance; for induction of neuronal MHC-I: cultures directly exposed, absence of microglial cells
Procedure: IFN-γ (R&D Systems) was used at a range of non-toxic concentrations for neurons or OT-1 cells (10 μg/ml-100 ng/ml, 72h). 12-well cell culture plates were pre-treated with LPS (500 ng/ml, Sigma-Aldrich), NM (5 μg/ml), α-syn, Nit-α-syn or Mut-α-syn (200 μg/ml, kindly provided by Peter Lansbury, Harvard University) for 72 h before plating 45,000-50,000 microglial cells/well for an additional 24h. A neutralizing IFN-γ antibody (1:500, PBL InterferonSource) was used to block IFN-γ released from microglia. VM neurons were incubated for 72 h with microglial medium pre-stimulated by LPS, NM, α-syn, Nit-α-syn or Mut-α-syn. As a control experiment, we directly incubated VM neurons with the same compounds in the absence of microglia. In another set of experiments, VM, cortical and striatal primary neurons were incubated for 72 h with microglial medium pre-stimulated by LPS, NM, α-syn. NM was induced in SN cultured neurons by using L-DOPA (Sulzer et al., 2000) (Sigma Aldrich). For foreign protein processing and subsequent antigen presentation, VM cultures were maintained for 7 days in either 1) BSA/serum-free neuronal medium, 2) BSA/serum-free supplemented with OVA (2.5 mg/ml), adding IFN-γ (100 ng/ml) or saline for an additional 72h.
Images were captured using a Leica SP5 microscope system. There was no fluorescence bleed-through of secondary antibodies under the conditions used. MHC-I label observed in the neuronal cultures obtained from wild type mice was absent in neurons from β2m KO mice (FIG. 3A).
In order to assess the proportion of TH^+ and MAP-2^+ neurons that expressed MHC-I^+, first TH^+ and MAP-2^+ neurons were counted in 24 fields surrounding the border of the well at 20× magnification. The number of TH^+ or MAP-2^+ neurons with intact soma and two or more neurites equal to or greater than the diameter of the cell soma was counted. Then, the fluorescent filter was inserted for each field to determine how many of these neurons also expressed MHC-I.

[6] = Patients Summary, PD patients, of donors tested (peptide)
[7] = Patients Summary, PD patients, single peptide
[8] = number of donors positive to the single peptide, second 'Pool Stimulated' section (from r296), 12 donors tested
[9] = peptide + / donors tested (peptide), second 'Pool Stimulated' section (from r296), 12 donors tested
[10] = single peptide, second 'Pool Stimulated' section (from r296), 12 donors tested

3521.0074 (VAAAEKTKQGVAEAP; listed as Homo sapiens)
IFNg Peptide + (donors positive to the peptide) [1, 6]: 1
IFNg Avg SFC [1, 7]: 67 SFC
IFNg Response Frequency [1, 7]: 33%
IFNg Total SFC [1, 7]: 67 SFC
IFNg Peptide + [1, 8]: 0
IFNg Response Frequency [1, 9]: 0%
IFNg Total SFC [1, 10]: 0 SFC
Peptides + in Patients & Normals [2]: 0
IL-g Peptide + (donors positive to the peptide) [3, 6]: 0
IL-g Response Frequency [3, 7]: 0%
IL-g Total SFC [3, 7]: 0 SFC
IL-g Peptide + [3, 8]: 0
IL-g Response Frequency [3, 9]: 0%
IL-g Total SFC [3, 10]: 0 SFC

N[C@@H](Cc1ccc(O)c(O)c1)C(=O)O [L-DOPA, L-dihydroxyphenylalanine]
neurons in which NM was induced [4]: 40%
TH+ neurons with MHC-I display ([4]; TH+ neurons): ~10%
TH− neurons with MHC-I display ([4]; TH− neurons): ~7%

COC(=O)C[C@H](NC(=O)[C@H](C)NC(=O)[C@@H](NC(=O)OCc1ccccc1)C(C)C)C(=O)CF [Z-VAD-FMK] (Cbz-Val-Ala-Asp(OMe)-CH2F)
effect on CTL mediated neuronal death (VM DA (TH+) neurons): protect against CTL mediated neuronal death

C/C=C/[C@H]1O[C@@](O)([C@@H](C)[C@H](O)[C@H](C)[C@H]2OC(=O)/C(OC)=C/C(C)=C/[C@@H](C)[C@@H](O)[C@@H](CC)[C@@H](O)[C@H](C)C/C(C)=C/C=C/[C@@H]2OC)C[C@@H](O[C@H]2C[C@@H](O)[C@H](OC(N)=O)[C@@H](C)O2)[C@@H]1C [concanamycin A]
effect on CTL mediated neuronal death (VM DA (TH+) neurons): protect against CTL mediated neuronal death

lipopolysaccharide [LPS, reference compound]
neuronal death (VM DA (TH+) neurons): caused extensive neuronal death
IFN-γ secretion, in words [5]: induced IFN-γ secretion
cell surface MHC-I presentation by VM neurons (primary VM neurons): elicited cell surface MHC-I presentation
induction of neuronal MHC-I (primary VM neurons): no induction

α-syn: alpha synuclein protein, wild type
neuronal death (VM DA (TH+) neurons): caused extensive neuronal death
cell surface MHC-I presentation by VM neurons (primary VM neurons): elicited cell surface MHC-I presentation
induction of neuronal MHC-I (primary VM neurons): no induction
